The nature of series [1]: Pharmacokinetic test in mice. To be noted: C57, mouse, PO 30 mg/kg, plasma. In kind it is in vivo. On the procedure:
Biological Test Example 3: Pharmacokinetic Test in Mice
Experimental animals: C57 mice, 22-25 g, 6 mice/compound.
Experimental design: on the day of the experiment, C57 mice were randomly grouped according to their body weights. The animals were fasted with water available for 12-14 h one day before the administration, and were fed 4 h after the administration.
Before and after the administration, 0.06 mL of blood was taken from the orbit under isoflurane anesthesia, and placed in an EDTAK2 centrifuge tube. Centrifugation was performed at 5000 rpm at 4° C. for 10 min, and the plasma was collected. The blood collection time points for both the intravenous administration group and the intragastric administration group were: 0, 5 min, 15 min, 30 min, 1 h, 2 h, 4 h, 7 h, 24 h and 48 h. Before analysis and detection, all samples were stored at −80° C. The samples were quantitatively analyzed by LC-MS/MS.

Another series addresses T1, hNav1.8 (Homo sapiens, UniProt Q9Y5Y9).
T1 construct: expressed in transfected cells; host or cells: CHO
As to the kind of experiment: Nav1.8 manual patch clamp test. The class given is cell-based. The following applies: CHO cells stably expressing human Nav1.8; whole-cell patch clamp, half-inactivated state; read-out: Inhibitory activity (IC50) against hNav1.8. On the procedure:
Nav1.8 Manual Patch Clamp Test
CHO cell lines stably expressing human Nav1.8 were cultured in a Ham's F-12 medium containing 10% fetal bovine serum, 10 μg/mL Blasticidin, 200 μg/mL Hygromycin B and 100 μg/mL Zeocin. The cells were cultured at 37° C. with a carbon dioxide concentration of 5%. The old medium was removed, and the cells were rinsed once with PBS. Then, 1 mL of 0.25%-Trypsin-EDTA solution was added, and the cells were incubated at 37° C. for approximately 1.5 min. Once the cells detached from the bottom of the dish, complete medium pre-warmed to 37° C. was added. The cell suspension was gently triturated with a pipette to dissociate the clumped cells. The cell suspension was transferred to a sterile centrifuge tube and centrifuged at 1000 rpm for 5 min to collect the cells. The cells were seeded into 6 cm cell culture dishes at a density of 2.5×10^5 cells per cell culture dish (final volume: 5 mL) for expansion or maintenance culture. To maintain the electrophysiological activity of the cells, the cell density should not exceed 80%. Before patch clamp testing, the cells were dissociated with 0.25%-Trypsin-EDTA. 6.5×10^3 cells were plated onto coverslips and cultured in 24-well plates (final volume: […]) for 18 hours before detection.
The compound was dissolved in dimethyl sulfoxide (DMSO) and prepared into a 30 mM DMSO stock solution. The stock solution was diluted with the extracellular fluid (140 mM NaCl, 3.5 mM KCl, 1 mM MgCl2·6H2O, 2 mM CaCl2·2H2O, 10 mM D-Glucose, 10 mM HEPES and 1.25 mM NaH2PO4·2H2O; adjusted to pH 7.4 with NaOH) to the test concentration, and the final DMSO concentration of all test samples was 0.1%.
(3) Electrophysiological Test
First, the recording electrodes were pulled from capillary glass tubes by using a microelectrode puller. Then, the electrodes were filled with the intracellular fluid (50 mM CsCl, 10 mM NaCl, 10 mM HEPES, 60 mM CsF and 20 mM EGTA; adjusted to pH 7.2 with CsOH) and mounted onto the microelectrode holder. Under an inverted microscope, the microelectrode manipulator was used to immerse the electrodes into the extracellular fluid, and the pipette resistance (Rpip) was recorded. The electrodes were slowly brought into contact with the cell surface, and negative pressure suction was applied to form a […]. At this point, fast capacitance compensation was performed, and negative pressure was continuously applied to break the cell membrane, forming a whole-cell recording mode. Finally, slow capacitance compensation was performed, and experimental parameters such as series resistance (Rs) were recorded. No electric leakage compensation was applied. When the Nav1.8 current in whole-cell recording was stable, drug administration was initiated, with each drug concentration for approximately 5 min (or until the current was stable). The coverslips spread with the cells were placed in a recording chamber under the inverted microscope. The blank control extracellular fluid and the test compound working solution were perfused through the recording chamber via the gravity-driven perfusion method, thereby acting on the cells, and a peristaltic pump was used to facilitate liquid exchange. The current recorded from cells in compound-free extracellular fluid was used as the control group. All electrophysiological experiments were conducted at room temperature. The inhibition rate of compounds on Nav1.8 was determined by calculating the relative percentage of peak currents generated before and after the cells were treated with the compounds.
The voltage stimulation protocol for whole-cell patch clamp recording of Nav1.8 sodium currents was described as follows. When the whole-cell sealing was formed, the cells were clamped at a voltage of −120 mV. First, the voltage was stepped from −110 mV to −30 mV in 10 mV increments and maintained for 5 s, followed by a depolarizing pulse to 0 mV to obtain a half-inactivation voltage (Vhalf). […]

The subject of series [2] is Spinal nerve ligation (SNL)-induced mouse model of neuropathic pain. Description: Spinal nerve ligation (SNL)-induced mouse model of neuropathic pain. In kind it is in vivo, C57BL/6J mice. The following applies: SNL mice, mechanical pain threshold. On the procedure: Biological Test Example 8: Spinal Nerve Ligation (SNL)-Induced Mouse Model of Neuropathic Pain
Male C57BL/6J mice purchased from Zhejiang Vital River Laboratory Animal Technology Co., Ltd. were adaptively raised for one week and then the models were established. […]
The mice that were unsuccessful in modeling were eliminated the next day after modeling (marker for successful modeling: mice with their hind paws curled up). […] After grouping, the test compounds (3 and 30 mg/kg) or vehicles (0.5% methylcellulose) were administered intragastrically, and the mechanical pain threshold (MPT) of the mice was measured at different time points after the administration. […]

A further series addresses T2, CYP2C9 (Homo sapiens, UniProt P11712).
T2 construct: co-incubated with human liver microsomes and test compounds; from tissue; host or cells: human liver microsomes
As to the kind of experiment: CYP450 enzyme inhibition test (human liver microsomes). In kind it is in vitro ADME. To be noted: read-out: IC50 against CYP2C9. On the procedure:
(§1) Biological Test Example 6: CYP450 Enzyme Inhibition Test The purpose of this study was to evaluate the effect of test compounds on the activity of five isoenzymes (CYP1A2, CYP2C9, CYP2C19, CYP2D6, and CYP3A4) of human liver microsomal cytochrome P450 (CYP) by using an in vitro testing system. The specific probe substrates of CYP450 isoenzymes were co-incubated with human liver microsomes and test compounds at different concentrations, and the reaction was initiated by adding reduced nicotinamide adenine dinucleotide phosphate (NADPH). After the completion of the reaction, the samples were treated and subjected to the liquid chromatography-tandem mass spectrometry (LC-MS/MS) to quantitatively detect metabolites produced by the specific substrates. The changes in CYP enzyme activity were determined, and IC50 values were calculated to evaluate the inhibitory potential of the test compounds on each CYP enzyme subtype.

A further series has as its target T3, CYP2C19 (Homo sapiens, UniProt P33261).
T3 construct: co-incubated with human liver microsomes and test compounds; from tissue; host or cells: human liver microsomes
The series is described as above. To be noted: read-out: IC50 against CYP2C19. The class given is in vitro ADME. On the procedure: as §1

Another series deals with T4, CYP2D6 (Homo sapiens, UniProt P10635).
T4 construct: co-incubated with human liver microsomes and test compounds; from tissue; host or cells: human liver microsomes
Described as above. In kind it is in vitro ADME. The following applies: read-out: IC50 against CYP2D6. The method, then: as §1

In another series the target is T5, CYP1A2 (Homo sapiens, UniProt P05177).
T5 construct: co-incubated with human liver microsomes and test compounds; from tissue; host or cells: human liver microsomes
T5 sequence (P05177 1-516): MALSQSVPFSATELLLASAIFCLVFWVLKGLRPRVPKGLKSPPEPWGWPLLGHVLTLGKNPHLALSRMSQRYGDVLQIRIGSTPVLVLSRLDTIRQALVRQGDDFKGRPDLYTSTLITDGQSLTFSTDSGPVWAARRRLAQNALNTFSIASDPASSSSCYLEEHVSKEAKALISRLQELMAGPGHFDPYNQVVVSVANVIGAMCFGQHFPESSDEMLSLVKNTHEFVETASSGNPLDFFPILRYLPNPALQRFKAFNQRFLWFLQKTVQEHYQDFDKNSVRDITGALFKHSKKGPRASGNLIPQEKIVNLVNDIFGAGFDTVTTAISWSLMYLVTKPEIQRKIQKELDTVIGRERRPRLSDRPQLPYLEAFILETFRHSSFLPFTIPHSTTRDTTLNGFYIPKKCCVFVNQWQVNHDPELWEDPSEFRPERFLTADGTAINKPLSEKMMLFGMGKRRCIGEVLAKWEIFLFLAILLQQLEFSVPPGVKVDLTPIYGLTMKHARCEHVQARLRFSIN
Described as above. In kind it is in vitro ADME. The following applies: read-out: IC50 against CYP1A2. On the procedure: as §1

Another series concerns the target T6, CYP3A4 (Homo sapiens, UniProt P08684).
T6 construct: co-incubated with human liver microsomes and test compounds; from tissue; host or cells: human liver microsomes
Described as above. In kind it is in vitro ADME. To be noted: read-out: IC50 against CYP3A4. On the procedure: as §1

The text below walks through data of US20260216157A1, “TETRAHYDROTHIOPHENE DERIVATIVE AND USE THEREOF IN MEDICINE” (Haisco Pharmaceutical Group Co., Ltd., priority 2023, published 2026).

Some results are limits rather than exact numbers.

T1 sequence (Q9Y5Y9 whole entry): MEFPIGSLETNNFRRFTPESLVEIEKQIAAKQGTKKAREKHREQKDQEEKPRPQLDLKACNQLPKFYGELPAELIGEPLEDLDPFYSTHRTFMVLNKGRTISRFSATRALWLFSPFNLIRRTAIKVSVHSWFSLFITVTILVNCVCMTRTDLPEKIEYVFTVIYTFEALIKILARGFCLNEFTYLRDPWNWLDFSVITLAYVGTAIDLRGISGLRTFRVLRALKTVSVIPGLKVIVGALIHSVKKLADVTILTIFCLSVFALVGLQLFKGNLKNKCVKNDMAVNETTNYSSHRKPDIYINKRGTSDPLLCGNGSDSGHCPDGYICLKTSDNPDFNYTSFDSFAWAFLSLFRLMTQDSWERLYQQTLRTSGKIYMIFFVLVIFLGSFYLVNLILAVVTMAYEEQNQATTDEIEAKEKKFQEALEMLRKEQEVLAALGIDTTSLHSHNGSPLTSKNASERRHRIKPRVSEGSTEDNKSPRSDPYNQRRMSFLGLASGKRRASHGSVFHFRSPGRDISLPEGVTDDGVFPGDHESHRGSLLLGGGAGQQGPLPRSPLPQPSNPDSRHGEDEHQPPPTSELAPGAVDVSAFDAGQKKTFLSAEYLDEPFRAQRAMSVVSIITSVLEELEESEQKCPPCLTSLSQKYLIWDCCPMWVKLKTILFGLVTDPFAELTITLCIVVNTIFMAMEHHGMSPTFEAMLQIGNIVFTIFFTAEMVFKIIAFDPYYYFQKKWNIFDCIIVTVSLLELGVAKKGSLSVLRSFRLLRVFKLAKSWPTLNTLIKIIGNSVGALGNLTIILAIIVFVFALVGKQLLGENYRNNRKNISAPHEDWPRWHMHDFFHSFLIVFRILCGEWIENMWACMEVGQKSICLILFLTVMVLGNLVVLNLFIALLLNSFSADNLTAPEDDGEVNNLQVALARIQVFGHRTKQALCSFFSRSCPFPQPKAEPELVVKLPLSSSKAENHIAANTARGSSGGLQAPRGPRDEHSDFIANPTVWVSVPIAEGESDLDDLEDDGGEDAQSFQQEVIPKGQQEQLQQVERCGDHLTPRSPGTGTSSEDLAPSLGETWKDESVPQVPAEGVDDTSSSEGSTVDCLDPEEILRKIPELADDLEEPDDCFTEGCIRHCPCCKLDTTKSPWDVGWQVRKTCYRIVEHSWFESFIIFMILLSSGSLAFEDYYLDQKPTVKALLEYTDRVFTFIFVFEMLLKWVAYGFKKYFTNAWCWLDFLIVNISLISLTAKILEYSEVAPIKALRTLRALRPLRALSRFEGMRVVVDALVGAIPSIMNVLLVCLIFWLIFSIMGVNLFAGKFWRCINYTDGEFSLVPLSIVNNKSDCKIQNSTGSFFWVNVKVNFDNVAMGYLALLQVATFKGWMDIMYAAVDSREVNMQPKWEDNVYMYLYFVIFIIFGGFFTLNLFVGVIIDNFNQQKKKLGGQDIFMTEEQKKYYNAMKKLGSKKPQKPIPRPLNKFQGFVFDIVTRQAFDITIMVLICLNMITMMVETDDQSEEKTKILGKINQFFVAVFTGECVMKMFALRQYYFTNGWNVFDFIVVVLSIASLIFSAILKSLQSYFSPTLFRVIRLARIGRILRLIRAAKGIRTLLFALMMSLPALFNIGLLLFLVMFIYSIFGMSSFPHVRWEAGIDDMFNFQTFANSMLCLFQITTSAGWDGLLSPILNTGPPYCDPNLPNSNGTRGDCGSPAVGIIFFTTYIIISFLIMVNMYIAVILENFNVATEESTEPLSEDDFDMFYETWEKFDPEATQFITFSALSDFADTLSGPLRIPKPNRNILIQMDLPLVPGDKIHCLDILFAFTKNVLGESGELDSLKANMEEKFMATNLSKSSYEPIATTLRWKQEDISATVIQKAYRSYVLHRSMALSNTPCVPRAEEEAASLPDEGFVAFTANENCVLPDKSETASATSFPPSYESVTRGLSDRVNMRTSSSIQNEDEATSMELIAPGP
T2 sequence (P11712 whole entry): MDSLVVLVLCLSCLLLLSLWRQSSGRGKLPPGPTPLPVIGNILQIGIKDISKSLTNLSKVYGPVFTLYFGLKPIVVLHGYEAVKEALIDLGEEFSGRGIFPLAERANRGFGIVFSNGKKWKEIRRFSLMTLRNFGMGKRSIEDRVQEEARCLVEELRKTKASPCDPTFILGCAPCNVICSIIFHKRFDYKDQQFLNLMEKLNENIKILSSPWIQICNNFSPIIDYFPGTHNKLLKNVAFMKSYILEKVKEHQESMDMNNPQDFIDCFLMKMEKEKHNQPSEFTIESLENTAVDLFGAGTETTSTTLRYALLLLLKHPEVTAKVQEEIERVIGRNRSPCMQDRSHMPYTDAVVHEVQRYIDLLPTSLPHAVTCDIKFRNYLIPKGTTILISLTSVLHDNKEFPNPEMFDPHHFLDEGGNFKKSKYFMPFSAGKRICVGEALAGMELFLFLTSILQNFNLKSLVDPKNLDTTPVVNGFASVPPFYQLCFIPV
T6 sequence (P08684 whole entry): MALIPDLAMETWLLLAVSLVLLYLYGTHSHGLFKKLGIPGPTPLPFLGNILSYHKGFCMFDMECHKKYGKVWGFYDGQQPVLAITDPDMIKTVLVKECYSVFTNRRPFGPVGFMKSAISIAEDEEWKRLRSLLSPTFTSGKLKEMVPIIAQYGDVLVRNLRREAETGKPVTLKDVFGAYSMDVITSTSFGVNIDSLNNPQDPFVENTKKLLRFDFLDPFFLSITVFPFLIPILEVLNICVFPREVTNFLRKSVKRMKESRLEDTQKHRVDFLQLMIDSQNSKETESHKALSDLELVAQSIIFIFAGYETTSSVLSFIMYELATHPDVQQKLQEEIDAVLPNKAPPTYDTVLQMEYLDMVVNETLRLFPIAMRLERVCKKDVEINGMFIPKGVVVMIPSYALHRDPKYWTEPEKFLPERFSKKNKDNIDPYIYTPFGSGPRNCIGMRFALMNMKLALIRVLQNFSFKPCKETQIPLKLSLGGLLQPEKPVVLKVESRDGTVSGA
T4 sequence (P10635 whole entry): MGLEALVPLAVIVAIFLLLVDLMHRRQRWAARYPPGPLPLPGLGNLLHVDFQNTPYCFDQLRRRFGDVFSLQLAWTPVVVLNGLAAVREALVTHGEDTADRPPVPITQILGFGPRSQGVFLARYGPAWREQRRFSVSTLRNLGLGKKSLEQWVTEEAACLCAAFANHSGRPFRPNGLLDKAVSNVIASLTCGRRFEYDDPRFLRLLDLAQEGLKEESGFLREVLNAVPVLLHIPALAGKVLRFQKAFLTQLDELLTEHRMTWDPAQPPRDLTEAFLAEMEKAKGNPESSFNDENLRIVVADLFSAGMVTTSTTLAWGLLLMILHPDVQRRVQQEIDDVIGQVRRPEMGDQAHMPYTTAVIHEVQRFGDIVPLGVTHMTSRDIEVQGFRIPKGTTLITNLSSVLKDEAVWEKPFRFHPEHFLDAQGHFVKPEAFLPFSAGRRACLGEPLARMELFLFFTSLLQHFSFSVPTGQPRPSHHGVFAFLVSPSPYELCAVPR
T3 sequence (P33261 whole entry): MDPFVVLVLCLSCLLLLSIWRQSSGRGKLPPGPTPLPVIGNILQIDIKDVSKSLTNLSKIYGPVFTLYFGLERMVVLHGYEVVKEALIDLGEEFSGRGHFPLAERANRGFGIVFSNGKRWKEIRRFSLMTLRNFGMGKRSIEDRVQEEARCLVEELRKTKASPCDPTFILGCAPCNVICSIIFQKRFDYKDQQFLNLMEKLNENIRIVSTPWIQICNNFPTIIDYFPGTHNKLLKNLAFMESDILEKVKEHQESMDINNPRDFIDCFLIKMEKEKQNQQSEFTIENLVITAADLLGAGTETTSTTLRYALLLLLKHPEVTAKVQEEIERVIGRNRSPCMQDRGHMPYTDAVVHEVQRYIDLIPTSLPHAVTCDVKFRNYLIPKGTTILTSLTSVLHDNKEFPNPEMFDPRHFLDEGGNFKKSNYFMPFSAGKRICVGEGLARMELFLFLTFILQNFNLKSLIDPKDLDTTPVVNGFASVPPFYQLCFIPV

Turning to `COc1c(C2CC(C)(C(F)(F)F)SC2C(=O)Nc2ccnc(C(N)=O)c2)ccc(F)c1F` (single isomer, unassigned) [Compound 31-1P1], the area under the curve AUC(0-t) in series [1] was determined as 61600 ± 9480 ng·h/mL. For the same molecule, the IC50 on hNav1.8 was less than 0.0001 µM.

On to `COc1c([C@H]2[C@H](C(=O)Nc3ccc(F)c(C(N)=O)c3)S[C@@](C)(C(F)(F)F)[C@H]2C)ccc(F)c1F` [Compound 6-2a], for which the half-inhibitory concentration (IC50) at hNav1.8 was less than 0.0001 µM. Also, the “analgesic efficacy (area under the time-MPT curve)” value in series [2] (3 mg/kg intragastric) and in series [2] (30 mg/kg intragastric) was “significant analgesic efficacy” each time.

In series [1], `COc1c([C@H]2[C@H](C(=O)Nc3ccnc(P(C)(C)=O)c3)S[C@@](C)(C(F)(F)F)[C@H]2C)ccc(F)c1F` [Compound 58] returned an AUC(0-t) of 65100 ± 9200 ng·h/mL. In addition, the IC50 on CYP2C9, at CYP2C19, on CYP2D6, on CYP1A2 and at CYP3A4 was greater than 30 µM each time.

Consider `C[C@H]1[C@@H](c2ccc(F)c3c2OCC3(C)C)[C@H](C(=O)Nc2ccnc(C(N)=O)c2)S[C@@]1(C)C(F)(F)F` [Mixture of compounds 76-8a and 76-8b], for which the 50% inhibitory concentration (IC50) on hNav1.8 was less than 0.001 µM.

Take `COc1c([C@H]2[C@H](C(=O)Nc3ccnc(P(C)(C)=O)c3)S[C@@](C)(C(F)(F)F)[C@H]2C)ccc(F)c1F` [Trifluoroacetate of compound 58]: the 50% inhibitory concentration (IC50) on hNav1.8 is less than 0.001 µM.

Usually AUC(0-t) stands for exposure summed from dosing to a finite time, without extrapolation to infinity. Low readings indicate low exposure, high ones high exposure. Usually IC50 stands for the concentration that gives 50% inhibition.
